Laboratory results taken from EP0511381B1, “SQUARYLIUM AND CROCONYLIUM DYES” (POLAROID CORPORATION, priority 1990, dated 1992).
Where a name gives a salt, the structure may show the parent alone. One block for each compound: values may come before it.

Columns and labels:
Format in all cases: physicochemical
[1] = Solubility in dichloromethane (saturated solution); settings: weight percentage of dye to solvent in a saturated solution
From the text: This Example illustrates the high solubility in halogenated organic solvents which can be achieved by dyes of the present invention, as compared with similar dyes which bear 2-phenyl or -substituted phenyl groups.

[2] = Absorption and thermal stability of dye in polymer films; design: λmax: unit not given here; settings: for Width: full width of infra-red absorption peak at half maximum
Experimental: This Example illustrates the high absorptions which can be achieved by a dye of the present invention when dispersed in a polymer, and the thermal stability of such dispersed polymer.
The polymers tested in this Example were polystyrene/acrylonitrile, polyvinylbutyral and polyvinylformal polymers. 10.0 mg of the dye (hereinafter referred to as "Dye B") prepared as described in Example 5 above was dissolved in 2.0 mL of a 2.5% w/v solution of each polymer in dichloromethane, and the resultant solution was coated onto a transparent 4 mil polyvinyl chloride base using a No. 10 coating rod. The resultant film was oven dried at 80°C for 10 minutes. After the film had cooled, the wavelength of maximum infra-red absorption (λmax), the absorbance at λmax (Amax), and the full width of the infra-red absorption peak at half maximum were measured. The film samples were then stored in the dark for 15 days at 80°C, and the same absorption parameters were remeasured to give the data shown in Table 1, in which initial values are shown, with values after heating in parentheses.

[3] = Photochemical stability of dye in polymer films
Experimental: This Example illustrates the photochemical stability of a dye of the present invention in a polymer matrix.
20 mg of Dye B prepared as described in Example 5 above and 100 mg of a test polymer (polyvinylbutyral or polyacrylate) were dissolved in dichloromethane, and the resultant solution was coated onto PET transparent base using a #4 coating rod. The maximum absorbance of the resultant film was measured before and after exposure of the coated side of the base to irradiation with a fluorescent lamp (560 ft. candles) for 24 or 67 hours. The results are shown in Table 2 below (with the absorbance after irradiation in parentheses).

[4] = Storage stability of thermal imaging medium containing the dye; settings: imaging medium (dye, leuco dye LD3, polyurethane Estane 5715 binder) stored at 60°C for 4 days
Experimental: A coating fluid was prepared by combining the infra-red dye of Formula IR4 above (prepared in Example 12 above, 2.6 mg) with a leuco dye of Formula LD3 above (110 mg) and a polymeric binder (polyurethane Estane 5715, supplied by B.F. Goodrich, 0.73 mL of a 15% solution in acetone). The fluid was diluted with acetone (0.157 mL), then coated onto a 4 mil (101 »m) transparent poly(ethylene terephthalate) base using a #12 coating rod. The film so formed was laminated at 180°F […] and 60 psi (0.4 MPa) to a second sheet of 4 mil (101 »m) poly(ethylene terephthalate) which had been coated with Joncryl 138 to a thickness of approximately 2 »m.

[5] = Polyvinylbutyral film, after 15 days at 80°C in the dark
[6] = Polyvinylbutyral film, initial value
[7] = Polyvinylformal film, after 15 days at 80°C in the dark
[8] = Polyvinylformal film, initial value
[9] = SAN (polystyrene/acrylonitrile) film, after 15 days at 80°C in the dark
[10] = SAN (polystyrene/acrylonitrile) film, initial value

Structure (SMILES): CCN(CC)c1ccc2c(c1)OC(c1ccccc1)=CC2=CC1=C([O-])C(=Cc2cc(-c3ccccc3)[o+]c3cc(N(CC)CC)ccc23)C1=O [Control Dye y, reference compound]
Solubility [1]: 0.02 wt. %

Structure (SMILES): CCN(CC)c1ccc2c(c1)OC(C1CCCCC1)=CC2=CC1=C([O-])C(=Cc2cc(C3CCCCC3)[o+]c3cc(N(CC)CC)ccc23)C1=O [Dye F, 4-[[3-[2-cyclohexyl-7-diethylamino-(benz[b]-4H-pyran-4-ylidene)methyl]-2-hydroxy-4-oxo-2-cyclobuten-1-ylidene]methyl]-2-cyclohexyl-7-diethylaminobenz[b]pyrylium hydroxide inner salt dye]
Solubility [1]: 0.4 wt. %

Structure (SMILES): CCC(CC)COc1ccc2c(c1)OC(C(C)(C)C)=CC2=CC1=C([O-])C(=Cc2cc(C(C)(C)C)[o+]c3cc(N(CC)CC)ccc23)C1=O [IR4, 4-[[3-[[7-diethylamino-2-[1,1-dimethylethyl]benz[b]-4H-pyran-4-ylidene]methyl]-2-hydroxy-4-oxo-2-cyclobuten-1-ylidene]methyl]-7-[2-ethylbut-1-oxy]-2-[1,1-dimethylethyl]benz[b]pyrylium hydroxide inner salt dye]
loss of near infra-red absorption [4]: 2.4%

Second part, the compound after the results:

Solubility [1]: 0.1 wt. %
Structure (SMILES): CCN(CC)c1ccc2c(c1)OC(c1ccc(C)cc1C)=CC2=CC1=C([O-])C(=Cc2cc(-c3ccc(C)cc3C)[o+]c3cc(N(CC)CC)ccc23)C1=O [Control Dye z, reference compound]

Amax [2, 5]: 2.16 | λmax [2, 5]: 812 | Amax [2, 6]: 2.99 | λmax [2, 6]: 815 | Amax [2, 7]: 2.64 | λmax [2, 7]: 820 (820) | Amax [2, 8]: 2.62 | λmax [2, 8]: 820 (820) | Amax [2, 9]: 2.68 | λmax [2, 9]: 826 (826) | Amax [2, 10]: 2.59 | λmax [2, 10]: 826 (826) | Width [2, 5]: 79 nm | Width [2, 6]: 70 nm | Width [2, 7]: 80 (80) nm | Width [2, 8]: 80 (80) nm | Width ([2]; SAN film, after 15 days at 80°C in the dark): 74 (74) nm | Width ([2]; SAN film, initial value): 74 (74) nm | Amax ([3]; Polyacrylate film, after 24 hours irradiation with fluorescent lamp (560 ft. candles)): 0.78 | Amax ([3]; Polyacrylate film, before irradiation): 0.84 | Amax ([3]; Polyvinylbutyral film, after 67 hours irradiation with fluorescent lamp (560 ft. candles)): 1.018 | Amax ([3]; Polyvinylbutyral film, before irradiation): 1.225 | Solubility [1]: 11.5 wt. %
Structure (SMILES): CCN(CC)c1ccc2c(c1)OC(C(C)(C)C)=CC2=CC1=C([O-])C(=Cc2cc(C(C)(C)C)[o+]c3cc(N(CC)CC)ccc23)C1=O [Dye B]
